# Where two headings read alike, the source gives them in different places.
# What was measured:
# [1] = test system: Haemophilus influenzae (MB4572); assay: Microbroth dilution MIC, Haemophilus influenzae; assay type: cell-based; conditions: Haemophilus test medium; for MIC: read-out: MIC-100
# Excerpt: The strain of Haemophilus influenzae is a mouse pathogen used for in vivo testing at Merck. Selected isolates were subcultured onto either […] […] Isolates were subcultured twice before assay. […] Plates were read to no growth.
# [2] = test system: Candida albicans (MY1055); assay: Microbroth dilution MIC, Candida albicans control; assay type: cell-based; conditions: Candida albicans (MY1055) control strain, RPMI 1640; for MIC: read-out: MIC-100
# Excerpt: (§1) Selected isolates were subcultured onto either […] […] Isolates were subcultured twice before assay. […] Plates were read to no growth.
# [3] = test system: Bacillus subtilis (MB964); assay: Microbroth dilution MIC, Bacillus subtilis; assay type: cell-based; conditions: cation-adjusted Mueller Hinton broth, no visible growth; for MIC: read-out: MIC-100
# Excerpt: as §1
# [4] = test system: Enterococcus faecalis (CL8516); assay: Microbroth dilution MIC, Enterococcus faecalis; assay type: cell-based; conditions: cation-adjusted Mueller Hinton broth, no visible growth
# [5] = test system: Staphylococcus aureus (MB2865); assay: Microbroth dilution MIC, Staphylococcus aureus MB2865; assay type: cell-based; conditions: cation-adjusted Mueller Hinton broth, no visible growth
# Excerpt: The Staphylococcus aureus strains used were obtained from the Merck Culture Collection, and are identified as MB2865 and MB5957. […] Selected isolates were subcultured onto either […] Isolates were subcultured twice before assay. […] Plates were read to no growth.
# [6] = test system: Streptococcus pneumoniae (CL2883); assay: Microbroth dilution MIC, Streptococcus pneumoniae; assay type: cell-based; conditions: cation-adjusted Mueller Hinton broth + lysed horse blood
# [7] = test system: Escherichia coli envA1 tolC (MB5746); assay: microbe, parasite or virus in culture; conditions: read-out: MIC-100
# [8] = test system: Clostridium difficile (ATCC 700057); assay: Agar dilution MIC, Clostridium difficile ATCC 700057; assay type: cell-based; conditions: Clostridioides difficile
# Description: (§2) Drug dilutions and drug-supplemented agar plates were prepared manually.
# (§3) The growth and test media were those recommended by the Clinical and Laboratory Standards Institute (CLSI) for growth and susceptibility testing of anaerobes. See Clinical and Laboratory Standards Institute (CLSI). Methods for Antimicrobial Susceptibility Testing of Anaerobic Bacteria; Approved Standard—Seventh Edition. CLSI document M11-A7 [ISBN1-56238-626-3]. Clinical and Laboratory Standards Institute, 940 West Valley Road, Suite 1400, Wayne, Pa. 19087-1898 USA, 2007.
# (§4) This medium is referred to as Supplemented Brucella Agar (SBA).
# (§5) The media were prepared as follows: Brucella agar was weighed and water was added to the final volume minus the volume of the hemin, vitamin K, and lysed sheep blood. The agar was dissolved by boiling. Hemin (5 μg/ml) and vitamin K (1 μg/ml) were added to the agar and it was autoclaved for 23 minutes at 121° C. The agar was allowed to cool to 50° C. and 18.5 ml was dispensed into sterile glass tubes. Immediately prior to pouring the plates 1 ml of lysed sheep blood and 0.5 ml of the appropriate drug dilution were added to the tube. The contents of the tube were gently mixed by inverting the tube, and the drug-supplemented agar was poured into a petri dish. […]
# (§6) The inocula for the MIC assay were prepared inside the Bactron II anaerobe chamber, as follows. […] The MIC was read per CLSI guidelines.
# [9] = test system: Clostridium difficile (ATCC 43596); assay: Agar dilution MIC, Clostridium difficile ATCC 43596; assay type: cell-based; conditions: Clostridioides difficile, ATCC43596, 48 h
# Description: as §2, §3, §4, §5, §6
# [10] = test system: Escherichia coli envA1 tolC (MB5746); conditions: cell-wall permeable strain, cation-adjusted Mueller Hinton broth
# [11] = test system: Clostridium difficile (ATCC 700057); conditions: published CLSI quality control range; cited from earlier work
smiles,measurement,setting,value
O=C(O)c1cn(C2CC2)c2cc(N3CCNCC3)c(F)cc2c1=O [Ciprofloxacin],MIC,[1],< 0.015 µg/mL
same,MIC,[2],> 16 µg/mL
same,MIC,[3],0.06 µg/mL
CC[C@H]1OC(=O)[C@H](C)[C@@H](O[C@H]2C[C@@](C)(OC)[C@@H](O)[C@H](C)O2)[C@H](C)[C@@H](O[C@@H]2O[C@H](C)C[C@H](N(C)C)[C@H]2O)[C@](C)(OC)C[C@@H](C)C(=O)[C@H](C)[C@@H](O)[C@]1(C)O [Clarithromycin],MIC,[4]; read-out: MIC-100,2 µg/mL
same,MIC,[1],4 µg/mL
same,MIC,[2],> 16 µg/mL
same,MIC,[5]; read-out: MIC-100,0.12 µg/mL
same,MIC,[6]; read-out: MIC-100,0.03 µg/mL
same,MIC,[3],0.06 µg/mL
same,MIC,[7],0.12 µg/mL
Cc1ncc([N+](=O)[O-])n1CCO [Metronidazole],MIC,"[8]; ATCC700057, Clostridium difficile (ATCC 700057), agar dilution, Supplemented Brucella Agar, anaerobic, 35° C., 48 h, read-out: MIC",0.25 µg/mL
same,MIC,[9],0.25 µg/mL
CC1(C)S[C@@H]2[C@H](NC(=O)Cc3ccccc3)C(=O)N2[C@H]1C(=O)O [Penicillin G],MIC-100,[4],0.5 µg/mL
same,MIC-100,[1],0.25 µg/mL
same,MIC-100,[2],>64 µg/mL
same,MIC-100,[5],<0.06 µg/mL
same,MIC-100,[6],<0.06 µg/mL
same,MIC-100,[3],<0.06 µg/mL
same,MIC-100,[10],8 µg/mL
"CN[C@H](CC(C)C)C(=O)N[C@H]1C(=O)N[C@@H](CC(N)=O)C(=O)N[C@H]2C(=O)N[C@H]3C(=O)N[C@H](C(=O)N[C@H](C(=O)O)c4cc(O)cc(O)c4-c4cc3ccc4O)[C@H](O)c3ccc(c(Cl)c3)Oc3cc2cc(c3O[C@@H]2O[C@H](CO)[C@@H](O)[C@H](O)[C@H]2O[C@H]2C[C@](C)(N)[C@H](O)[C@H](C)O2)Oc2ccc(cc2Cl)[C@H]1O [Vancomycin, vancomycin]",MIC,"[8]; ATCC700057, 48 h",2 µg/mL
same,MIC,[9],1 µg/mL
same,CLSI quality control range (MIC),[11],2 (0.5-4)^1 μg/mL
